Publication PMC7734281, “Functionalized Oxoindolin Hydrazine Carbothioamide Derivatives as Highly Potent Inhibitors of Nucleoside Triphosphate Diphosphohydrolases” (Frontiers in Pharmacology, 2020)

Columns and labels:
h-NTPDase3 = biological target: T1, h-NTPDase3 (Homo sapiens, UniProt O75355); experiment: h-NTPDase3 inhibition, malachite green assay; assay type: biochemical; settings: for inhibition at 100 µM / Ki / IC50: human NTPDase3; for inhibition at 100 µM: compound 100 µM; for Mode of inhibition of h-NTPDase3: Lineweaver-Burk plot; for IC50: ATP 100 µM substrate, mean ± SEM of three independent experiments
T1 construct: made in house; host or cells: COS-7 cells, transient transfection; crude protein extract after sonication
T1 sequence (O75355 1-529): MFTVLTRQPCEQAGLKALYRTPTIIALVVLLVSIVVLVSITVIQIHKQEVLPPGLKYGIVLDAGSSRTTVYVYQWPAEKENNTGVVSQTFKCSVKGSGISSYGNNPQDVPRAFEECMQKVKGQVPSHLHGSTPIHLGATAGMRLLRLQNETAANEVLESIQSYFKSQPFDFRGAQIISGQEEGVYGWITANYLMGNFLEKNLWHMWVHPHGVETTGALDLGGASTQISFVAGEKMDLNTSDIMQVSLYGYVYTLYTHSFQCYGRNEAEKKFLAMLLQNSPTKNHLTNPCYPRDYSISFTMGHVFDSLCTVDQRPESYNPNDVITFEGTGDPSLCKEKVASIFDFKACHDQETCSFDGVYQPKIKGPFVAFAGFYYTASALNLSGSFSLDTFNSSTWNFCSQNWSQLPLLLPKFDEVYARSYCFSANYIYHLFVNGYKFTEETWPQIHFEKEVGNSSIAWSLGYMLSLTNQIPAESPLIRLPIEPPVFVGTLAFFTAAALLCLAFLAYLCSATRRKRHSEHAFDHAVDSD
Protocol: (§1) COS-7 cells were transfected with plasmids expressing human or mouse NTPDases1, -2, -3, and -8 as previously described ([Levesque et al., 2007]; [Lecka et al., 2014]) Briefly, the confluent cells were transferred to Dulbecco’s Modified Eagle’s Medium containing no fetal bovine serum. Then, these cells were incubated with plasmid DNA (6 µg) and Lipofectamine reagent (24 µl) at 37°C. After 5 h, transfection was terminated with the addition of an equal volume of DMEM/F-12 (supplemented with 20% FBS) and cells were collected by harvesting after 40–72 h.
(§2) To prepare protein extracts, transfected COS-7 cells were washed three times with tris-saline buffer while temperature was maintained at 4°C. Then cells were scraped and resuspended in harvesting buffer containing 95 mM NaCl, 45 mM tris and 0.1 mM phenylmethylsulfonyl fluoride (pH 7.5). Cells were again washed twice by centrifugation for 5 min at 300 × g at 4°C and then resuspended in harvesting buffer (supplemented with 10 μg ml aprotinin). Following sonication, cellular debris was isolated by 10 min centrifugation at 300 g at 4°C. Subsequently, supernatant was removed very carefully and protein concentration was determined by using Bradford microplate assay while using the bovine serum albumin as a standard ([Bradford, 1976]).
(§3) The inhibitory effects of synthesized compounds on h-NTPDase1, -2, -3, and -8 were determined as described previously, although with slight modifications ([Martín-Satué et al., 2009]). Assay was conducted in a reaction medium containing 50 mM tris-HCl and 5 mM CaCl2 (pH 7.4). All the test compounds were dissolved in dimethyl sulfoxide (DMSO, 10%) and initially screened at a concentration of 100 µM. A reaction mixture containing 55 µl of assay buffer, 10 µl of test compound solution and 10 µl of h-NTPDase1 (58 ng/well) or h-NTPDase2 (79 ng/well) or h-NTPDase3 (163 ng/well) or h-NTPDase8 (66 ng/well) was incubated at 37°C for 10 min. Following the incubation, a 10 µl solution of adenosine triphosphate (ATP, 100 µm) was added as substrate and reaction mixture was again incubated for 15 min at 37°C. The reaction was stopped by adding malachite green reagent (15 µl) and placed at room temperature for 4 to 6 min. Finally, absorbance was measured at 630 nm by using Omega FLUOstar microplate reader (BMG Labtech, Ortenberg, Germany) and % inhibitions were calculated. For compounds showing more than 50% inhibition of any isozyme, dose response curves were generated and their IC50 values were determined. Three separate enzyme inhibition assays were carried out in triplicate and dose-response curve were generated by using PRISM 5.0 (GraphPad, San Diego, United States).

h-NTPDase1 = biological target: T2, h-NTPDase1 (Homo sapiens, UniProt P49961); experiment: h-NTPDase1 inhibition, malachite green assay; assay type: biochemical; settings: for inhibition at 100 µM / Ki / IC50: human NTPDase1; for inhibition at 100 µM: compound 100 µM; for IC50: ATP 100 µM substrate, mean ± SEM of three independent experiments
T2 construct: made in house; host or cells: COS-7 cells, transient transfection; crude protein extract after sonication
T2 sequence (P49961 1-510): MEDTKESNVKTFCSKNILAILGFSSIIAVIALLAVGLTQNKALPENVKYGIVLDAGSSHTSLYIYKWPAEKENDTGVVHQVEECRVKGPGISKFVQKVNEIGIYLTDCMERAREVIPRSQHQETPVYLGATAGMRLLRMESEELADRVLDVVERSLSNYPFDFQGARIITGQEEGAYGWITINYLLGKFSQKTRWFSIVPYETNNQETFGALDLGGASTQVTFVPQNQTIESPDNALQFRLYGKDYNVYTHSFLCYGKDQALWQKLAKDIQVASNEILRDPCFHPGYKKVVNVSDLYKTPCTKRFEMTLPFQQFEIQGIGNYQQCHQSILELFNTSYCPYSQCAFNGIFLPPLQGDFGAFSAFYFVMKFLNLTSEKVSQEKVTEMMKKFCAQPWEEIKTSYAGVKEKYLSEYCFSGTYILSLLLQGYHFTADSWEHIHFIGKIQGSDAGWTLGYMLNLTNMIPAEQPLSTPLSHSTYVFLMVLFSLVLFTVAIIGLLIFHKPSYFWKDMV
Protocol: as §1, §2, §3

| SMILES | inhibition at 100 µM (h-NTPDase3) | inhibition at 100 µM (h-NTPDase1) | melting point | Ki (h-NTPDase1) | IC50 (h-NTPDase1) | Times more active than standard inhibitor suramin (comparison of IC50s), h-NTPDase3 (h-NTPDase3; IC50 ratio versus suramin) | Mode of inhibition of h-NTPDase3 (h-NTPDase3) | Ki (h-NTPDase3) | IC50 (h-NTPDase3) | Mode of inhibition of h-NTPDase1 (h-NTPDase1; Lineweaver-Burk plot) |
| --- | --- | --- | --- | --- | --- | --- | --- | --- | --- | --- |
| O=C1Nc2ccccc2/C1=N/NC(=S)Nc1ccccc1 [8a, (Z)-2-(2-oxoindolin-3-ylidene)-N-phenylhydrazine-1-carbothioamide] | 20% | 45% | – | – | – | – | – | – | – | – |
| O=C1Nc2ccccc2/C1=N/NC(=S)Nc1ccc([N+](=O)[O-])cc1 [8b, (Z)-N-(4-nitrophenyl)-2-(2-oxoindolin-3-ylidene)hydrazine-1-carbothioamide] | – | – | 271 to 272 °C | 0.04 µM | 0.29 ± 0.02 µM | – | – | – | – | – |
| O=C1Nc2ccccc2/C1=N/NC(=S)Nc1ccc(Cl)cc1 [8c, (Z)-N-(4-chlorophenyl)-2-(2-oxoindolin-3-ylidene)hydrazine-1-carbothioamide] | – | – | 240 to 244 °C | 0.03 µM | 0.23 ± 0.01 µM | 22 times | competitive | 0.08 µM | 0.19 ± 0.02 µM | – |
| O=C1Nc2ccccc2/C1=N/NC(=S)Nc1ccc(F)cc1 [8d, (Z)-N-(4-fluorophenyl)-2-(2-oxoindolin-3-ylidene)hydrazine-1-carbothioamide] | 46% | 49.1% | 255 to 256 °C | – | – | – | – | – | – | – |
| COc1cccc(NC(=S)N/N=C2\C(=O)Nc3ccccc32)c1 [8e, (Z)-N-(3-methoxyphenyl)-2-(2-oxoindolin-3-ylidene)hydrazine-1-carbothioamide] | – | – | 220 to 224 °C | 0.15 µM | 0.15 ± 0.009 µM | – | – | – | – | non-competitive |
| O=C1Nc2ccccc2/C1=N/NC(=S)NCc1ccccc1 [8f, (Z)-N-benzyl-2-(2-oxoindolin-3-ylidene)hydrazine-1-carbothioamide] | – | – | 206 to 208 °C | 0.03 µM | 0.24 ± 0.01 µM | – | – | – | – | – |
| O=C1Nc2ccccc2/C1=N/NC(=S)Nc1cccc(Cl)c1 [8g, (Z)-N-(3-chlorophenyl)-2-(2-oxoindolin-3-ylidene)hydrazine-1-carbothioamide] | 17% | 28% | 235 to 236 °C | – | – | – | – | – | – | – |

The next lines start with the values.

| inhibition at 100 µM (h-NTPDase3) | inhibition at 100 µM (h-NTPDase1) | melting point | Ki (h-NTPDase1) | IC50 (h-NTPDase1) | Times more active than standard inhibitor suramin (comparison of IC50s), h-NTPDase3 (h-NTPDase3; IC50 ratio versus suramin) | Mode of inhibition of h-NTPDase3 (h-NTPDase3) | Ki (h-NTPDase3) | IC50 (h-NTPDase3) | Mode of inhibition of h-NTPDase1 (h-NTPDase1; Lineweaver-Burk plot) | SMILES |
| --- | --- | --- | --- | --- | --- | --- | --- | --- | --- | --- |
| 26% | 49% | – | – | – | – | – | – | – | – | Cc1ccc(NC(=S)N/N=C2\C(=O)Nc3ccccc32)cc1 [8h, (Z)-2-(2-oxoindolin-3-ylidene)-N-(p-tolyl)hydrazine-1-carbothioamide] |
| 25% | – | 250 to 252 °C | 0.24 µM | 1.63 ± 0.15 µM | – | – | – | – | – | Cc1cccc(C)c1NC(=S)N/N=C1\C(=O)Nc2ccccc21 [8i, (Z)-N-(2,6-dimethylphenyl)-2-(2-oxoindolin-3-ylidene)hydrazine-1-carbothioamide] |
| 34% | – | 245 to 248 °C | 0.02 µM | 0.15 ± 0.01 µM | – | – | – | – | – | COc1ccc(OC)c(NC(=S)N/N=C2\C(=O)Nc3ccccc32)c1 [8j, (Z)-N-(2,5-dimethoxyphenyl)-2-(2-oxoindolin-3-ylidene)hydrazine-1-carbothioamide] |
| 19% | 44% | – | – | – | – | – | – | – | – | COc1ccc(NC(=S)NNC2=c3ccccc3=NC2=O)cc1 [8k, (Z)-N-(4-methoxyphenyl)-2-(2-oxoindolin-3-ylidene)hydrazine-1-carbothioamide] |
| – | – | 243 to 244 °C | 0.04 µM | 0.3 ± 0.03 µM | – | – | – | – | – | O=C1Nc2ccccc2/C1=N/NC(=S)Nc1c(F)cccc1F [8l, (Z)-N-(2,6-difluorophenyl)-2-(2-oxoindolin-3-ylidene)hydrazine-1-carbothioamide] |
| – | – | 190 to 194 °C | 0.38 µM | 2.6 ± 0.02 µM | – | non-competitive | 0.16 µM | 0.38 ± 0.03 µM | – | CCNC(=S)N/N=C1\C(=O)Nc2ccccc21 [8m, (Z)-N-ethyl-2-(2-oxoindolin-3-ylidene)hydrazine-1-carbothioamide] |
| – | – | – | 2.33 µM | 16.1 ± 1.02 µM | – | – | 1.85 µM | 4.31 ± 0.41 µM | – | Cc1ccc(C(=O)Nc2ccc(S(=O)(=O)O)c3cc(S(=O)(=O)O)cc(S(=O)(=O)O)c23)cc1NC(=O)c1cccc(NC(=O)Nc2cccc(C(=O)Nc3cc(C(=O)Nc4ccc(S(=O)(=O)O)c5cc(S(=O)(=O)O)cc(S(=O)(=O)O)c45)ccc3C)c2)c1 [Suramin, reference compound] |
